Measurements reported in patent US20220274980A1, “PHARMACOLOGICAL INHIBITORS OF THE ENL YEATS DOMAIN” (priority 2019, published 2022).

Key:
[1] = Half-life in human liver microsomes; type: in vitro ADME
[2] = Half-life in mouse liver microsomes; type: in vitro ADME
ENL(YEATS)-HiBiT = molecular target: T1, ENL(YEATS)-HiBiT (Homo sapiens, UniProt Q03111); assay: cell-based
T1 sequence (Q03111 1-138 limits assumed): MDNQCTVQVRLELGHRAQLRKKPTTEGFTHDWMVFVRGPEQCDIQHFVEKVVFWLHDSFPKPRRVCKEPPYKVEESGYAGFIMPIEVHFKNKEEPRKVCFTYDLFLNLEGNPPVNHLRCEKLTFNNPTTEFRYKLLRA

[3] = molecular target: T2, ENL YEATS domain (association with H3K27cr) (Homo sapiens, UniProt Q03111); assay: biochemical; settings: ENL (YEATS)-H3K27cr HTRF (IC50, μM)
T2 sequence (Q03111 1-148): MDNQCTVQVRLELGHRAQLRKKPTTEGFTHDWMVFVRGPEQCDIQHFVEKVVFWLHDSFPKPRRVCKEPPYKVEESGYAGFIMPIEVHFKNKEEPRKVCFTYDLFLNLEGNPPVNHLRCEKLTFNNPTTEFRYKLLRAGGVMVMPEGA

ENL protein = molecular target: T3, ENL protein (Homo sapiens, UniProt Q03111); assay: ENL immunoblot CETSA on endogenous ENL in OCI/AML-2 cells; type: cell-based; settings: 10 μM
T3 construct: performed on endogenous ENL protein by treating wild-type OCI-AML-2 cells with drug; endogenous in cells; host or cells: OCI/AML-2
T3 sequence (Q03111 1-559): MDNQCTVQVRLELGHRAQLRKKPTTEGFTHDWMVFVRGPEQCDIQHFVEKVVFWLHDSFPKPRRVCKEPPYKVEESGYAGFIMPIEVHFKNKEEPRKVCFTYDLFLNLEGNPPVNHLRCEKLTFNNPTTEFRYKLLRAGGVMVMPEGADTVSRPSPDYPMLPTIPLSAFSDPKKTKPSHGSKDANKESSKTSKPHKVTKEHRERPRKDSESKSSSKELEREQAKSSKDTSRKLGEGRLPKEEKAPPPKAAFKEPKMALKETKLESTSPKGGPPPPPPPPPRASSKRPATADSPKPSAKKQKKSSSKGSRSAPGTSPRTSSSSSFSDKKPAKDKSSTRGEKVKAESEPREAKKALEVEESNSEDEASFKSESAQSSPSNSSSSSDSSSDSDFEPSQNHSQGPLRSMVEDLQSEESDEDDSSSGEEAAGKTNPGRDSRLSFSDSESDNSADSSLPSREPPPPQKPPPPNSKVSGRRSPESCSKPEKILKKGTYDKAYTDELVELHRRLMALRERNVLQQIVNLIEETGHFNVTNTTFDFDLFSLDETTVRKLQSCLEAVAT
Procedure: Cellular thermal shift assay (CETSA). […] Briefly, cells were treated with drug, washed with PBS, heated to various temperatures in a thermocycler, cooled to room temperature, lysed by three rounds of freeze-thaw, and then clarified lystaes were subjected to immunoblot analysis.

MV4; 11 cells = assay: MV4;11 proliferation assay (total viable cell count); type: cell-based; settings: listed as Compound of Formula 69
Procedure: Proliferation assay. MV4; 11 cells were seeded at 20,000 cells/well in 96-well plates and treated with vehicle or drug, counted and reseeded at 20,000 cells/well every 3-4 days with freshly added vehicle or drug.

[4] = read-out: t1/2 (min) human liver microsomes
[5] = read-out: t1/2 (min) mouse liver microsomes
[6] = without NADPH, read-out: t1/2 mouse (min liver microsomes (without NADPH))

| Compound | half-life [1, 4] [min] | half-life [2, 5] [min] | IC50 (ENL(YEATS)-HiBiT) [nM] | IC50 ([3]; Table 1) [µM] | IC50 ([3]; Table 2) [µM] | half-life [2, 6] [min] | stabilization of ENL protein, immunoblot analysis of CETSA (ENL protein) | inhibition of MV4:11 proliferation, total viable cell count (MV4; 11 cells) | half-life ([1]; without NADPH, read-out: t1/2 (min) human liver microsomes (without NADPH)) [min] |
| --- | --- | --- | --- | --- | --- | --- | --- | --- | --- |
| O=C(CCN1CCNCC1)Nc1cccc(-c2cn3cc(C(=O)NC4CCC4)ccc3n2)c1 [Compound 114] | 2960 | 323 | 4500 | 0.261 | 0.261 |  |  |  |  |
| CC1(C)CCN(CCNS(=O)(=O)Nc2cccc(-c3cn4cc(C(=O)NC5CCC5)ccc4n3)c2)CC1 [Compound 101] |  | 2.29 | 297 | 0.062 | 0.062 | 405 |  |  |  |
| O=C(NC1CCC1)c1ccc2nc(-c3cccc(NS(=O)(=O)CCN4CCCCC4)c3)cn2c1 [Compound 106] |  | 7.83 | 1240 | 0.027 | 0.027 |  |  |  |  |
| O=C(CCN1CCCCC1)Nc1cccc(-c2cn3cc(C(=O)NC4CCC4)ccc3n2)c1 [Compound 102] |  | 34.1 | 536 | 0.478 | 0.478 | 138 |  |  |  |
| COC1CCN(CCNS(=O)(=O)Nc2cccc(-c3cn4cc(C(=O)NC5CCC5)ccc4n3)c2)CC1 [Compound 94] |  | 5.23 | 1520 | 0.197 | 0.197 | 774 |  |  |  |
| O=C(NC1CCC1)c1ccc2nc(-c3cccc(NS(=O)(=O)CCCN4CCCCC4)c3)cn2c1 [Compound 104] |  | 14.5 | 1030 | 0.134 | 0.134 |  |  |  |  |
| CC1CCN(CCNS(=O)(=O)Nc2cccc(-c3cn4cc(C(=O)NC5CCC5)ccc4n3)c2)CC1 [Compound 100] |  | 4.04 | 238 | 0.029 | 0.029 | 463 |  |  |  |
| O=C(NCCN1CCCCC1)Nc1cccc(-c2cn3cc(C(=O)NC4CCC4)ccc3n2)c1 [Compound 113] | 104 | 85.9 | 2630 | 0.153 | 0.153 |  |  |  |  |
| O=C(CCN1CCCCC1=O)Nc1cccc(-c2cn3cc(C(=O)NC4CCC4)ccc3n2)c1 [Compound 109] |  | 3.46 | 8130 | 0.265 | 0.265 |  |  |  |  |
| O=C(CCN1CCOCC1)Nc1cccc(-c2cn3cc(C(=O)NC4CCC4)ccc3n2)c1 [Compound 110] |  | 19.9 | 5010 | 0.306 | 0.306 |  |  |  |  |
| O=C(NC1CCC1)c1ccc2nc(-c3cccc(S(=O)(=O)NCCN4CCCCC4)c3)cn2c1 [Compound 107] |  | 6.15 | 2020 | 0.635 | 0.635 |  |  |  |  |
| O=C(NC1CCC1)c1ccc2nc(-c3cccc(NS(=O)(=O)NCCc4c[nH]cn4)c3)cn2c1 [Compound 69, 2-(3-((N-(2-(1H-imidazol-4-yl)ethyl)sulfamoyl)amino)phenyl)-N-cyclobutylimidazo[1,2-a]pyridine-6-carboxamide] |  |  | 8400 | 0.1 | 0.1 |  | stabilization of ENL protein | Inhibition of MV4:11 proliferations |  |
| O=C(CN1CCCCC1)Nc1cccc(-c2cn3cc(C(=O)NC4CCC4)ccc3n2)c1 [Compound 112] |  | 6.16 | 1070 | 0.172 | 0.172 |  |  |  |  |
| O=C(NC1CCC1)c1ccc2nc(-c3cccc(S(=O)(=O)NCCCN4CCCCC4)c3)cn2c1 [Compound 105] |  | 9.7 | 3240 | 0.84 | 0.84 |  |  |  |  |
| O=C(NCCN1CCCCC1)c1cccc(-c2cn3cc(C(=O)NC4CCC4)ccc3n2)c1 [Compound 108] | 23.8 | 28 | 630 | 0.124 | 0.124 |  |  |  | 537 |
